Data reported in patent publication US10829464B2, “Benzoheterocyclic alkylamine compounds and use thereof” (priority 2016, dated 2020).
Converted amounts (≈) assume the structure as drawn. Where a name gives a salt, the structure may show the parent alone. Each block holds one molecule with its values, some of them ahead of it.

Tests used:
Trichophyton rubrum = assay: In vitro antifungal assay (micro liquid-based dilution); format: cell-based; details: read-out: Antifungal Activities, MIC80
Microsporum gypseum = assay: as above; format: cell-based; details: Nannizzia gypsea, read-out: Antifungal Activities, MIC80
Tinea barbae = assay: as above; format: cell-based; details: read-out: Antifungal Activities, MIC80
[1] = tested on: wild-type S. aureus Newman strain; assay: Verification assay using CrtN as a target (HPLC of carotenoid extract); format: cell-based, Staphylococcus aureus; details: 100 μM added to wild-type strain Newman, 440 nm
LRSA202 = assay: In vivo pharmacodynamics evaluation in infected mice; details: BALB/c mice infected retroorbitally with LRSA202
Description: (§1) Compound IA-25 was used as a representative compound. The laboratory SPF-grade female BALB/c mice were purchased from Shanghai Jiesijie Laboratory Animal Co., Ltd. and bred under aseptic condition to 6-8 weeks old. The S. aureus strains which had been cultured overnight were transferred to fresh and sterile TSB medium and cultured at 37° C. and 250 rpm for 3 h to exponential growth phase; the culture was washed twice with PBS buffer, and then suspended in PBS for later use. In the mouse infection assay, the mice were divided into several groups, each containing 10 mice.

LRSA56 = assay: as above; details: BALB/c mice infected retroorbitally with LRSA56
Description: as §1

Mu50 = assay: as above; details: BALB/c mice infected retroorbitally with Mu50
Description: as §1

NF65Y = assay: as above; details: BALB/c mice infected retroorbitally with NF65Y
Description: as §1

NRS108 = assay: as above; details: BALB/c mice infected retroorbitally with NRS108
Description: as §1

NRS271 = assay: as above; details: BALB/c mice infected retroorbitally with NRS271
Description: as §1

strain Newman = assay: as above; details: BALB/c mice infected retroorbitally with Newman
Description: as §1

HepG2 = assay: In vitro cytotoxicity assay
HEK293 = assay: In vitro cytotoxicity assay
CYP enzyme subtype 2C19 = CYP enzyme subtype 2C19 (Homo sapiens, UniProt P33261); assay: Inhibition assay on hepatic CYP450 enzyme; format: in vitro ADME; details: CYP 2C19; read-out: Half inhibitory concentration (IC50)
[2] = tested on: Staphylococcus aureus subsp. aureus str. strain Newman; assay: Preliminary screening assay of inhibition of staphyloxanthin synthesis; format: cell-based; details: 50, 10, 5, 2.5, 1.25, 0.625, 0.3125 and 0 μM from left to right
Description: Strains used for assay: freshly activated wild-type Staphylococcus aureus subsp. aureus str. strain Newman and its homologous mutant strain having crtN insertion (without staphyloxanthin synthesis).
Medium for assay: Tryptone Soy broth (TSB), a product from Oxid Corporation, the United Kingdom, which was formulated with distilled water, sterilized at 121° C. for 15 min for later use.
Method of Preliminary Screening Assay:
(1) Preparation of compound: the compound of the invention was dissolved in dimethyl sulfoxide (DMSO) to prepare a stock solution having a concentration of 10 mM; 400 μL of DMSO was added to 100 μL of the stock solution to get a dilution with a concentration of 2 mM; 250 μL (2 mM) of the dilution was taken after mixing, and an equal amount of DMSO was added thereto for 2-fold dilution to get a solution with a concentration of […] for later use.
(2) Culture of the strain: single colonies of strain Newman were picked from TSA plates into a test tube containing 4 mL of sterile TSB medium, and cultured at 37° C. and 250 rpm for 12 h for later use.

S. aureus strain Newman = assay: IC50 determination of inhibition of staphyloxanthin synthesis; format: cell-based; details: Staphylococcus aureus; S. aureus strain Newman, Table 1; read-out: IC50, inhibitory activity on staphyloxanthin synthesis
Description: Selection of compound concentrations: based on the preliminary screening results, the ability of each compound to inhibit staphyloxanthin synthesis was determined. […] According to the assay results, 10 different concentration gradients were designed for each compound, such that the ability to inhibit staphyloxanthin synthesis comprised substantially from 0% to 100%.
Culture of the strains: single colonies of strain Newman and crtN mutant strain were picked from TSA plates, added into test tubes containing 4 mL of sterile TSB medium, and cultured at 37° C. and 250 rpm for 12 h for later use.
The relative level of staphyloxanthin synthesis at each concentration of the compound of the invention=A450 (sample)/A450 (negative control)*100%. With the molar concentration of the compound as the abscissa and the relative level of staphyloxanthin synthesis as the ordinate, a curve fitting of inhibitor concentration-inhibition rate (log(inhibitor) vs response) was performed in Graphpad prism 5.0 software, and the IC50 of the compound for inhibiting staphyloxanthin synthesis was calculated by software based on the fitting results.
S. aureus was selected for IC50 determination with respect to activity of inhibiting staphyloxanthin synthesis. […]

CYP enzyme subtype 2C19, sequence (P33261 whole entry): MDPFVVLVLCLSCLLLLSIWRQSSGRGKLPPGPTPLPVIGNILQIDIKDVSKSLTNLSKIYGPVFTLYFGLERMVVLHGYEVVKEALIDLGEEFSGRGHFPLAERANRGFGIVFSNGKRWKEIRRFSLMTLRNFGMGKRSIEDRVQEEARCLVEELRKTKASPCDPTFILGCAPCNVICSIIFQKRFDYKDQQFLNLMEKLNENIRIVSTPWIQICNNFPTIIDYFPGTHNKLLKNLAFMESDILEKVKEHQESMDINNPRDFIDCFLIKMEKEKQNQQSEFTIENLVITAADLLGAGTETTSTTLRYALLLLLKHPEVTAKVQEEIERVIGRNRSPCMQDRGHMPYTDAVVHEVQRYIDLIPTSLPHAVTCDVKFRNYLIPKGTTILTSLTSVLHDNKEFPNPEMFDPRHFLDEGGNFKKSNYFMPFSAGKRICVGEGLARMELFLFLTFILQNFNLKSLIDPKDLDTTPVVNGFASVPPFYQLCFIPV

MIC80 (Trichophyton rubrum): 0.5 µg/mL (≈ 0.941 µM)
MIC80 (Microsporum gypseum): 2 µg/mL (≈ 3.76 µM)
MIC80 (Tinea barbae): 0.0625 µg/mL (≈ 0.118 µM)
Structure (SMILES): CC(=O)N1CCN(c2ccc(OCC3COC(Cn4ccnc4)(c4ccc(Cl)cc4Cl)O3)cc2)CC1 (centres unmarked) [Ketoconazole]

MIC80 (Trichophyton rubrum): 0.0312 µg/mL (≈ 0.0895 µM)
MIC80 (Microsporum gypseum): 0.25 µg/mL (≈ 0.716 µM)
MIC80 (Tinea barbae): 0.0312 µg/mL (≈ 0.0895 µM)
Structure (SMILES): C[C@@H](c1ncncc1F)[C@](O)(Cn1cncn1)c1ccc(F)cc1F [Voriconazole]

Structure (SMILES): CN(C/C=C/c1ccccc1)Cc1cccc2ccccc12 [naftifine hydrochloride, reference compound]
HPLC absorption peaks of carotenoid extract [1]: absorption peaks at the original peak position disappeared again

Structure (SMILES): CN[C@H](CC(C)C)C(=O)N[C@H]1C(=O)N[C@@H](CC(N)=O)C(=O)N[C@H]2C(=O)N[C@H]3C(=O)N[C@H](C(=O)N[C@H](C(=O)O)c4cc(O)cc(O)c4-c4cc3ccc4O)[C@H](O)c3ccc(c(Cl)c3)Oc3cc2cc(c3O[C@@H]2O[C@H](CO)[C@@H](O)[C@H](O)[C@H]2O[C@H]2C[C@](C)(N)[C@H](O)[C@H](C)O2)Oc2ccc(cc2Cl)[C@H]1O [Vancomycin]
Viable colony counts in vivo (LRSA202): 5.3 Log10CFU
Viable colony counts in vivo (LRSA56): 3.8 Log10CFU
Viable colony counts in vivo (Mu50): 5.4 Log10CFU
Viable colony counts in vivo (NF65Y): 4.6 Log10CFU
Viable colony counts in vivo (NRS108): 2.4 Log10CFU
Viable colony counts in vivo (NRS271): 6.5 Log10CFU
Viable colony counts in vivo (strain Newman): 4.3 Log10CFU

Structure (SMILES): C[C@@H]1[C@H](O)[C@@H](C)/C=C/C=C/C=C/C=C/C=C/C=C/C=C/[C@H](O[C@@H]2O[C@H](C)[C@@H](O)[C@H](N)[C@@H]2O)C[C@@H]2O[C@](O)(C[C@@H](O)C[C@@H](O)[C@H](O)CC[C@@H](O)C[C@@H](O)CC(=O)O[C@H]1C)C[C@H](O)[C@H]2C(=O)O [Amphotericin B]
CC50 of compounds on cells (HepG2): 2.956 µg/mL
CC50 of compounds on cells (HEK293): 3.923 µg/mL

Structure (SMILES): CC(=O)NC[C@H]1CN(c2ccc(N3CCOCC3)c(F)c2)C(=O)O1 [Linezolid]
Viable colony counts in vivo (LRSA202): 4.6 Log10CFU
Viable colony counts in vivo (LRSA56): 4.6 Log10CFU
Viable colony counts in vivo (Mu50): 3.1 Log10CFU
Viable colony counts in vivo (NF65Y): 5.1 Log10CFU
Viable colony counts in vivo (NRS108): 2.3 Log10CFU
Viable colony counts in vivo (NRS271): 8.3 Log10CFU
Viable colony counts in vivo (strain Newman): 4.9 Log10CFU

IC50 (CYP enzyme subtype 2C19): 3880 nM
Structure (SMILES): COc1ccc2[nH]c([S+]([O-])Cc3ncc(C)c(OC)c3C)nc2c1 (centres unmarked) [omeprazole, reference compound]

MIC80 (Trichophyton rubrum): 1 µg/mL (≈ 3.27 µM)
MIC80 (Microsporum gypseum): 8 µg/mL (≈ 26.1 µM)
MIC80 (Tinea barbae): 2 µg/mL (≈ 6.53 µM)
Structure (SMILES): OC(Cn1cncn1)(Cn1cncn1)c1ccc(F)cc1F [Fluconazole]

Structure (SMILES): CN(Cc1coc2ccccc12)C[C@@H]1C[C@H]1c1ccc(-c2ccccc2)cc1 [Compound IC-1, 1-((1R,2R)-2-([1,1′-biphenyl]-4-yl)cyclopropyl)-N-(benzofuran-3-ylmethyl)-N-methylmethanamine]
colors in final photograph of inhibition of staphyloxanthin synthesis [2]: white to yellow from left to right gradually
IC50 (S. aureus strain Newman): > 1000 nM

Structure (SMILES): CN(C/C=C/c1ccc(Cl)cc1Cl)Cc1coc2ccccc12 [Compound IA-11, (E)-N-methyl-N-[(benzofuran-3-yl)methylene]-3-(2,4-dichlorophenyl)prop-2-en-1-amine]
IC50 (S. aureus strain Newman): 6.2 ± 0.5 nM

Structure (SMILES): CN(CC/C=C/c1ccc(-c2ccccc2)cc1)Cc1coc2ccccc12 [Compound IA-40, (E)-4-([1,1′-biphenyl]-4-yl)-N-(benzofuran-3-ylmethyl)-N-methylbut-3-en-1-amine]
IC50 (S. aureus strain Newman): > 1000 nM

Structure (SMILES): Cc1ccccc1/C=C/CN(C)Cc1coc2ccccc12 [Compound IA-36, (E)-N-methyl-N-[(benzofuran-3-yl)methylene]-3-(2-methylphenyl)-prop-2-en-1-amine]
IC50 (S. aureus strain Newman): 86.4 ± 0.6 nM
